These results are taken from US11415579B2, “Assay for measuring a rate of reaction between a target and a ligand candidate” (Imperial College Innovations Ltd., priority 2016, dated 2022).

The structures appear in SMILES notation.

Experiment [1] concerns the target T1, Cdk2(S276C) (C177A) (Homo sapiens, UniProt P24941, C177A/S276C).
T1 construct: poly-histidine; made in house; host or cells: E. coli
The experiment can be described thus: Kinetic thiol consumption assay with Cdk2 mutant S276C. The following applies: additional mutation C177A; for Rate constant with Cdk2 S276C: Protein: Cdk2, cysteine position S276C, in h^-1. Further details: key to Rate enhancement, Cdk2 S276C: rate constant with Cdk2 ÷ rate constant with model thiol (fold). The class given is binding. How it is done: (§1) To wells containing 150 μL thiol (Cdk2 or model thiol) (5 μM) in degassed phosphate buffer (pH 8) was added immobilized TCEP beads (2% v/v).
(§2) After incubation of the fluorescence plates for 1 hour at room temperature, fluorescence measurements (excitation/emission of 380/470 nm) were taken on a PerkinElmer EnVision multilabel plate reader and processed with EnVision Workstation version 1.12.
(§3) Fluorescence measurements were normalized against a DMSO/thiol only control and plotted against time.
(§4) Rate constants were calculated using GraphPad software Prism version 6 by fitting a first order exponential decay to the data. The rate constant for each acrylamide with Cdk2 was divided by the rate constant for that fragment with the model thiol to provide the rate enhancement for each ligand candidate.
(§5) A further set of set of additional Cdk2 mutants were screened, all containing the C177A mutation and therefore with only one cysteine on the surface: • F80C (without the K278C mutation) • H71C • S276C • N272 • T182C • R122C • S181C
(§6) Mutations were introduced by site-directed mutagenesis and the resulting cDNA was cloned into the pRSETA bacterial expression vector to generate a poly-histidine tagged Cdk2 fusion that was purified from E. coli using standard techniques.

Experiment [2] concerns the target T2, Cdk2(C177A, F80C) (Homo sapiens, UniProt P24941, C177A/F80C).
T2 construct: poly-histidine; made in house; host or cells: E. coli
Nature of the experiment: Kinetic thiol consumption assay with Cdk2 mutant F80C, incl. kobs versus concentration (Kd, k2). Further details: key to Rate enhancement, Cdk2 F80C: Cdk2 rate constant divided by model-thiol rate constant. The following applies: additional mutation C177A; for Rate constant with Cdk2 F80C: Protein: Cdk2, cysteine position F80C, in h^-1. The class given is binding. As to the method:
Therefore the assay can be used to calculate both k2 and Kd by experimentally determining kobs at a suitable range of ligand candidate concentrations. Typically Kd and k2 would then be determined by fitting a hyperbolic curve to a plot of kobs against ligand candidate concentration (FIG. 9).
as §1, §2, §3, §4, §5, §6
Rate constants were calculated as described in the methodology section of Examples 1 and 2.

Experiment [3] addresses T3, Cdk2(H71C) (C177A) (Homo sapiens, UniProt P24941, C177A/H71C).
T3 construct: poly-histidine; made in house; host or cells: E. coli
Nature of the experiment: Kinetic thiol consumption assay with Cdk2 mutant H71C. Further details: key to Rate enhancement, Cdk2 H71C: rate constant with Cdk2 ÷ rate constant with model thiol (fold). The class given is binding. To be noted: additional mutation C177A; for Rate constant with Cdk2 H71C: Protein: Cdk2, cysteine position H71C, in h^-1. How it is done:
as §1, §2, §3, §4, §5, §6

For experiment [4], the target named is T4, Cdk2(R122C) (C177A) (Homo sapiens, UniProt P24941, C177A/R122C).
T4 construct: poly-histidine; made in house; host or cells: E. coli
Nature of the experiment: Kinetic thiol consumption assay with Cdk2 mutant R122C. More on the design: key to Rate enhancement, Cdk2 R122C: rate constant with Cdk2 ÷ rate constant with model thiol (fold). Type of experiment: binding. The following applies: additional mutation C177A; for Rate constant with Cdk2 R122C: Protein: Cdk2, cysteine position R122C, in h-1. How it is done:
as §1, §2, §3, §4, §5, §6

Experiment [5] can be described thus: Kinetic thiol consumption assay with model thiol glutathione. Type of experiment: physicochemical. Further details: Rate constant with glutathione (k(GSH)): unit not given here. To be noted: for Rate constant with Glutathione: Protein: Glutathione, cysteine position NA, in h-1. How it is done: (§7) A library of 120 acrylamides was screened against a) human cyclin-dependent kinase 2 (Cdk2, which contains one surface exposed cysteine residue—C177), prepared by cloning cDNA into the pRSETA bacterial expression vector to generate a poly-histidine tagged Cdk2 fusion that was purified from E. coli using standard techniques, and b) a model thiol (specific details are given below). The structures of these 120 acrylamides are set out in Table 1, above.
as §1, §2, §3, §4
The model thiol in Example 1 is glutathione (GSH). Hits were defined as fragments where kCdk2/kGSH>5.8 (empirically determined as 3 standard deviations over the mean).

Experiment [6] concerns the target T5, Cdk2(T182C) (C177A) (Homo sapiens, UniProt P24941, C177A/T182C).
T5 construct: poly-histidine; made in house; host or cells: E. coli
The experiment can be described thus: Kinetic thiol consumption assay with Cdk2 mutant T182C. To be noted: additional mutation C177A; for Rate constant with Cdk2 T182C: Protein: Cdk2, cysteine position T182C, in h^-1. The class given is binding. More on the design: key to Rate enhancement, Cdk2 T182C: rate constant with Cdk2 ÷ rate constant with model thiol (fold). How it is done: as §1, §2, §3, §4, §5, §6

In experiment [7] the target is T6, human cyclin-dependent kinase 2 (Cdk2) (Homo sapiens, UniProt P24941).
T6 construct: poly-histidine; made in house; host or cells: E. coli
Nature of the experiment: Kinetic thiol consumption assay with wild type Cdk2 (C177). Type of experiment: binding. The following applies: for Rate enhancement, Cdk2 WT: no additional mutations; for Rate constant with Cdk2 WT: Protein: Cdk2, cysteine position WT, in h^-1. Further details: key to Rate enhancement, Cdk2 WT: k(Cdk2) divided by k(model thiol); Rate constant with Cdk2 (k(Cdk2)): unit not given here. As to the method: as §7, §1, §2, §3, §4

Experiment [8] deals with T7, Cdk2(N272C) (C177A) (Homo sapiens, UniProt P24941, C177A/N272C).
T7 construct: poly-histidine; made in house; host or cells: E. coli
The experiment can be described thus: Kinetic thiol consumption assay with Cdk2 mutant N272C. The class given is binding. Further details: key to Rate enhancement, Cdk2 N272: rate constant with Cdk2 ÷ rate constant with model thiol (fold). To be noted: for Rate enhancement, Cdk2 N272: Cdk2 N272, additional mutation C177A; for Rate constant with Cdk2 N272C: Protein: Cdk2, cysteine position N272C, additional mutation C177A, in h^-1. As to the method: as §1, §2, §3, §4, §5, §6

For experiment [9], the target named is T8, Cdk2(S181C) (C177A) (Homo sapiens, UniProt P24941, C177A/S181C).
T8 construct: poly-histidine; made in house; host or cells: E. coli
The experiment can be described thus: Kinetic thiol consumption assay with Cdk2 mutant S181C. The class given is binding. Further details: key to Rate enhancement, Cdk2 S181C: rate constant with Cdk2 ÷ rate constant with model thiol (fold). The following applies: additional mutation C177A; for Rate constant with Cdk2 S181C: Protein: Cdk2, cysteine position S181C, in h^-1. How it is done:
as §1, §2, §3, §4, §5, §6

Where [10] appears, read: 500 μM ligand, 5 μM thiol, phosphate buffer pH 8.

With `C=CC(=O)N1CCN(Cc2noc(C3CC3)n2)CC1` [CA-091], in experiment [1], the “Rate enhancement, Cdk2 S276C” value was 0.9396 and the “Rate constant with Cdk2 S276C” value is 0.007277. Further, in experiment [2], the “Rate enhancement, Cdk2 F80C” value turned out to be 0.1028 and the “Rate constant with Cdk2 F80C” value was determined as 0.0007964. Moreover, in experiment [3], the “Rate enhancement, Cdk2 H71C” value is reported as 0.1944 and the “Rate constant with Cdk2 H71C” value stood at 0.001506. In [4], the “Rate enhancement, Cdk2 R122C” value was 0.6918 and the “Rate constant with Cdk2 R122C” value was found to be 0.005358. In experiment [5] (setting [10]), the “Rate constant with glutathione (k(GSH))” value came out at 0.00525. In experiment [5], the “Rate constant with Glutathione” value was 0.007745. Also, in experiment [6], the “Rate enhancement, Cdk2 T182C” value came out at 2.003 and the “Rate constant with Cdk2 T182C” value worked out at 0.01551. Besides, the “Rate constant with Cdk2 (k(Cdk2))” value in experiment [7] (setting [10]) amounted to 0.0023. Further, in experiment [7], the “Rate enhancement, Cdk2 WT” value is 0.2968 and the “Rate constant with Cdk2 WT” value amounted to 0.002299. The “k(Cdk2)/k(GSH) rate enhancement” value in [7] (model thiol glutathione) is recorded as 0.4376. In experiment [8], the “Rate enhancement, Cdk2 N272” value is reported as 0.3769 and the “Rate constant with Cdk2 N272C” value is 0.002919. For the same molecule, in experiment [9], the “Rate enhancement, Cdk2 S181C” value was found to be 1.139 and the “Rate constant with Cdk2 S181C” value is 0.008821.
Take `C=CC(=O)N1CCCCCC1C/C=C/c1ccccc1` (centres unmarked) [CA-096/146]: in experiment [1], the “Rate enhancement, Cdk2 S276C” value was found to be 1.276 and the “Rate constant with Cdk2 S276C” value came to 0.01436. In experiment [2], the “Rate enhancement, Cdk2 F80C” value amounted to 1.641 and the “Rate constant with Cdk2 F80C” value turned out to be 0.01846. Further, in experiment [3], the “Rate enhancement, Cdk2 H71C” value amounted to 0.8889 and the “Rate constant with Cdk2 H71C” value was 0.01. For the same molecule, in experiment [4], the “Rate enhancement, Cdk2 R122C” value is on record as 0.7142 and the “Rate constant with Cdk2 R122C” value is given as 0.008035. Further, the “Rate constant with Glutathione” value in [5] worked out at 0.01125. Also, in experiment [6], the “Rate enhancement, Cdk2 T182C” value is recorded as 10.32 and the “Rate constant with Cdk2 T182C” value is on record as 0.1161. Besides, in experiment [7], the “Rate enhancement, Cdk2 WT” value is listed as 0.3023 and the “Rate constant with Cdk2 WT” value is given as 0.003401. In experiment [8], the “Rate enhancement, Cdk2 N272” value turned out to be 0.8907 and the “Rate constant with Cdk2 N272C” value came to 0.01002. Besides, in experiment [9], the “Rate enhancement, Cdk2 S181C” value stood at 12.97 and the “Rate constant with Cdk2 S181C” value was found to be 0.1459.
As for `C=CC(=O)N(CC(=O)N1CCCC1)CC1CCCO1` (centres unmarked) [CA-080/239], in experiment [1], the “Rate enhancement, Cdk2 S276C” value was found to be 0.2885 and the “Rate constant with Cdk2 S276C” value is given as 0.003474. For the same molecule, in experiment [2], the “Rate enhancement, Cdk2 F80C” value came out at 0.08364 and the “Rate constant with Cdk2 F80C” value amounted to 0.001007. In addition, the “Rate enhancement, Cdk2 H71C” value in [3] is given as 0. Moreover, in [4], the “Rate enhancement, Cdk2 R122C” value worked out at 0.173 and the “Rate constant with Cdk2 R122C” value was found to be 0.002083. In experiment [5], the “Rate constant with Glutathione” value is 0.01204. Moreover, in [6], the “Rate enhancement, Cdk2 T182C” value came to 0.9651 and the “Rate constant with Cdk2 T182C” value was determined as 0.01162. Further, in experiment [7], the “Rate enhancement, Cdk2 WT” value stood at 0.2317 and the “Rate constant with Cdk2 WT” value was 0.00279. In experiment [8], the “Rate enhancement, Cdk2 N272” value stood at 0.2756 and the “Rate constant with Cdk2 N272C” value came out at 0.003318. Besides, in [9], the “Rate enhancement, Cdk2 S181C” value is recorded as 0.1377 and the “Rate constant with Cdk2 S181C” value came out at 0.001658.
